# Several values for one entry are separate records, joined by “and”; a condition that tells them apart may be missing. Equal entries are not always repeated. Where two headings read alike, the source gives them in different places.
# System: functional microbial subcommunity (inoculum 2L-245 from upflow reactor)
# Assay: Stimulation of methane production: batch cultures with additive/stimulant, with or without coal, headspace methane by gas chromatography
# Type: cell-based
# Protocol: The availability of an inoculum of a functional microbial subcommunity capable of producing methane from coal in vitro prompted laboratory experiments where various stimulants were tested for their effect on methane production. […] The experiments were conducted at three different levels of additives (0.5×, 1× and 2×): additives (stimulants) were added in the following three concentrations. […] DMY media: DM media composition in milli-Q water is made as described above with the addition of 0.5 g/L yeast extract. DMSC media: DM media in milli-Q water is made as described above with the addition of 100 g/L sterile, anaerobic, sub-bituminous coal from the San Juan Basin. DMSCY media: DM media in milli-Q water is made as described above with the addition of 100 g/L sterile, anaerobic, sub-bituminous coal from the San Juan Basin and 0.5 g/L yeast extract. The coal used in these experiments originated from the San Juan Basin (BHP Billiton, Tex.). […] Each stimulant was tested in the presence or absence of coal. The experiments were conducted at three different concentrations of additives (0.5× (low), 1× (medium), and 2× (high)) as described above. Each sample type was conducted in 4 replicates. […] Control sample types were media alone, media plus coal, media plus yeast extract and media plus coal and yeast extract. At each time point, headspace measurements were taken using gas chromatography (microGC […], Agilent Technologies, Inc.). […] Each experiment was performed in quadruplicate. Methane at time 0 was assumed to be 0%.
# [1] = DMSCY (coal), 5 mM NH4Cl, week 1
# [2] = DMSCY (coal), 5 mM NH4Cl, week 3
# [3] = DMSCY (coal), 5 mM NH4Cl, week 5
# [4] = DMSCY (coal), 10 mM NH4Cl, week 1
# [5] = DMSCY (coal), 10 mM NH4Cl, week 3
# [6] = DMSCY (coal), 10 mM NH4Cl, week 5
# [7] = DMSCY (coal), 20 mM NH4Cl, week 1
# [8] = DMSCY (coal), 20 mM NH4Cl, week 5
# [9] = DMY (no coal), 5 mM NH4Cl, week 1
# [10] = DMY (no coal), 5 mM NH4Cl, week 3
# [11] = DMY (no coal), 5 mM NH4Cl, week 5
# [12] = DMY (no coal), 10 mM NH4Cl, week 1
# [13] = DMY (no coal), 20 mM NH4Cl, week 1
# [14] = DMY (no coal), 20 mM NH4Cl, week 3
# [15] = DMY (no coal), 20 mM NH4Cl, week 5
# [16] = DMSCY (coal), 5.0 μM Na2MoO4, week 1
# [17] = DMSCY (coal), 5.0 μM Na2MoO4, week 3
# [18] = DMSCY (coal), 5.0 μM Na2MoO4, week 5
# [19] = DMSCY (coal), 10 μM Na2MoO4, week 1
# [20] = DMSCY (coal), 10 μM Na2MoO4, week 3
# [21] = DMSCY (coal), 10 μM Na2MoO4, week 5
# [22] = DMY (no coal), 5.0 μM Na2MoO4, week 1
# [23] = DMY (no coal), 5.0 μM Na2MoO4, week 3
# [24] = DMY (no coal), 5.0 μM Na2MoO4, week 5
# [25] = DMY (no coal), 10 μM Na2MoO4, week 1
# [26] = DMY (no coal), 10 μM Na2MoO4, week 3
# [27] = DMY (no coal), 10 μM Na2MoO4, week 5
# [28] = DMSCY (coal), 125 μM Na2SO3, week 1
# [29] = DMSCY (coal), 125 μM Na2SO3, week 3
# [30] = DMSCY (coal), 125 μM Na2SO3, week 5
# [31] = DMSCY (coal), 250 μM Na2SO3, week 1
# [32] = DMSCY (coal), 250 μM Na2SO3, week 3
# [33] = DMSCY (coal), 250 μM Na2SO3, week 5
# [34] = DMSCY (coal), 500 μM Na2SO3, week 1
# [35] = DMSCY (coal), 500 μM Na2SO3, week 3
# [36] = DMSCY (coal), 500 μM Na2SO3, week 5
# [37] = DMY (no coal), 125 μM Na2SO3, week 1
# [38] = DMY (no coal), 125 μM Na2SO3, week 3
# [39] = DMY (no coal), 125 μM Na2SO3, week 5
# [40] = DMY (no coal), 250 μM Na2SO3, week 1
# [41] = DMY (no coal), 250 μM Na2SO3, week 3
# [42] = DMY (no coal), 250 μM Na2SO3, week 5
# [43] = DMY (no coal), 500 μM Na2SO3, week 1
# [44] = DMY (no coal), 500 μM Na2SO3, week 3
# [45] = DMY (no coal), 500 μM Na2SO3, week 5
structure (smiles),measurement,setting,value
"Cl.N [NH4Cl, ammonium chloride]",methane production (Average),[1],0.31
same,methane production (RepA-Rep D),[1],0.35 and 0.27 and 0.31 and 0.30
same,methane production (Average),[2],1.11
same,methane production (RepA-Rep D),[2],1.24 and 1.03 and 1.13
same,methane production (Average),[3],1.50
same,methane production (RepA-Rep D),[3],1.67 and 1.41 and 1.48 and 1.43
same,methane production (Average),[4],0.25
same,methane production (RepA-Rep D),[4],0.25 and 0.22 and 0.28
same,methane production (Average),[5],1.30
same,methane production (RepA-Rep D),[5],1.22 and 1.43 and 1.41 and 1.14
same,methane production (Average),[6],2.22
same,methane production (RepA-Rep D),[6],1.98 and 2.70 and 2.67 and 1.54
same,methane production (Average),[7],0.22
same,methane production (RepA-Rep D),[7],0.24 and 0.22 and 0.21
same,methane production (Average),"DMSCY (coal), 20 mM NH4Cl, week 3",1.18
same,methane production (Average),[8],1.46
same,methane production (RepA-Rep D),[8],1.63 and 1.48 and 1.37 and 1.36
same,methane production (Average),[9],0.26
same,methane production (RepA-Rep D),[9],0.26 and 0.27
same,methane production (Average),[10],0.71
same,methane production (RepA-Rep D),[10],0.74 and 0.68 and 0.67
same,methane production (Average),[11],0.66
same,methane production (RepA-Rep D),[11],0.69 and 0.65 and 0.62
same,methane production (Average),[12],0.20
same,methane production (RepA-Rep D),[12],0.22 and 0.21 and 0.15
same,methane production (Average),"DMY (no coal), 10 mM NH4Cl, week 3",0.57
same,methane production (Average),"DMY (no coal), 10 mM NH4Cl, week 5",0.58
same,methane production (Average),[13],0.22
same,methane production (RepA-Rep D),[13],0.23 and 0.22 and 0.21
same,methane production (Average),[14],0.77
same,methane production (RepA-Rep D),[14],0.80 and 0.78 and 0.76
same,methane production (Average),[15],0.78
same,methane production (RepA-Rep D),[15],0.80 and 0.79 and 0.76 and 0.77
same,effect on the production of methane,"intermediate concentration of the stimulant (FIGS. 1A, 1B, 2A)",statistically significant positive effect
same,dependence of methane production on coal,with or without coal,only observed in presence of coal
"[Na+].[Na+].[O]=[Mo](=[O])([O-])[O-] [Na2MoO4, sodium molybdic]",methane production (Average),[16],0.34
same,methane production (RepA-Rep D),[16],0.39 and 0.28 and 0.31
same,methane production (Average),[17],1.19
same,methane production (RepA-Rep D),[17],1.13 and 1.09 and 1.14 and 1.40
same,methane production (Average),[18],1.41
same,methane production (RepA-Rep D),[18],1.39 and 1.31 and 1.29 and 1.63
same,methane production (Average),[19],0.44
same,methane production (RepA-Rep D),[19],0.43 and 0.47 and 0.44
same,methane production (Average),[20],1.10
same,methane production (RepA-Rep D),[20],1.03 and 1.15 and 1.14 and 1.07
same,methane production (Average),[21],1.13
same,methane production (RepA-Rep D),[21],1.11 and 1.14 and 1.15 and 1.13
same,methane production (Average),[22],0.29
same,methane production (RepA-Rep D),[22],0.25 and 0.27 and 0.30 and 0.33
same,methane production (Average),[23],0.83
same,methane production (RepA-Rep D),[23],0.77 and 0.85 and 0.79 and 0.91
same,methane production (Average),[24],0.79
same,methane production (RepA-Rep D),[24],0.76 and 0.78 and 0.74 and 0.87
same,methane production (Average),[25],0.29
same,methane production (RepA-Rep D),[25],0.30 and 0.26 and 0.32
same,methane production (Average),[26],0.82
same,methane production (RepA-Rep D),[26],0.85 and 0.71 and 0.81 and 0.90
same,methane production (Average),[27],0.77
same,methane production (RepA-Rep D),[27],0.77 and 0.72 and 0.74 and 0.83
same,correlation of methane production with molybdate added to the cultures,FIG. 3B,negative correlation
same,difference of effects with or without coal,"molybdate, P=0.063",not statistically significantly different
"O=S([O-])([O-])=S.[Na+].[Na+] [Na2S2O3, sodium thiosulfate]",dependence of methane production on coal,,only observed in the presence of coal
same,effect on the production of methane,,statistically significant positive effect
"O=S([O-])[O-].[Na+].[Na+] [Na2SO3, sodium sulfite]",methane production (Average),[28],0.27
same,methane production (RepA-Rep D),[28],0.26 and 0.24 and 0.25 and 0.32
same,methane production (Average),[29],1.02
same,methane production (RepA-Rep D),[29],1.04 and 0.97 and 0.99 and 1.06
same,methane production (Average),[30],1.25
same,methane production (RepA-Rep D),[30],1.21 and 1.22 and 1.25 and 1.31
same,methane production (Average),[31],20
same,methane production (RepA-Rep D),[31],0.23 and 0.18 and 0.19 and 0.20
same,methane production (Average),[32],1.07
same,methane production (RepA-Rep D),[32],1.04 and 1.02 and 1.06 and 1.18
same,methane production (Average),[33],1.42
same,methane production (RepA-Rep D),[33],1.26 and 1.24 and 1.45 and 1.74
same,methane production (Average),[34],0.14
same,methane production (RepA-Rep D),[34],0.14 and 0.13 and 0.15
same,methane production (Average),[35],1.04
same,methane production (RepA-Rep D),[35],1.01 and 0.98 and 1.07 and 1.04
same,methane production (Average),[36],1.35
same,methane production (RepA-Rep D),[36],1.34 and 1.26 and 1.37 and 1.41
same,methane production (Average),[37],0.21
same,methane production (RepA-Rep D),[37],0.20 and 0.21 and 0.22
same,methane production (Average),[38],0.71
same,methane production (RepA-Rep D),[38],0.71 and 0.68 and 0.69 and 0.75
same,methane production (Average),[39],0.68
same,methane production (RepA-Rep D),[39],0.66 and 0.69 and 0.71
same,methane production (Average),[40],0.14
same,methane production (RepA-Rep D),[40],0.14 and 0.15 and 0.13
same,methane production (Average),[41],0.67
same,methane production (RepA-Rep D),[41],0.67 and 0.63 and 0.65 and 0.72
same,methane production (Average),[42],0.62
same,methane production (RepA-Rep D),[42],0.62 and 0.59 and 0.65
same,methane production (Average),[43],0.09
same,methane production (RepA-Rep D),[43],0.09 and 0.08 and 0.10
same,methane production (Average),[44],0.68
same,methane production (RepA-Rep D),[44],0.71 and 0.64 and 0.74
same,methane production (Average),[45],0.74
same,methane production (RepA-Rep D),[45],0.83 and 0.68 and 0.76

# — US20120138290A1, “METHODS TO STIMULATE BIOGENIC METHANE PRODUCTION FROM HYDROCARBON-BEARING FORMATIONS” (SYNTHETIC GENOMICS, INC., priority 2010, published 2012)
